{"source": "patent US20150328329A1", "about": "“LIGANDS THAT TARGET HCV-E2 BINDING SITES ON CD81 AND THERAPEUTIC METHODS USING THEM” (American University of Cairo, priority 2012, published 2015)", "molecules": {"B1": {"name": "E2 Protein: HCV E2 envelope glycoprotein that binds CD81 (protein)", "chain": "QTHITGGSTAHAAAGLANLFSMGPKQDIRLINTNGSWHINRTALNCNESLNTGWVAGLLYYNKFNSSGCSERLASCRPLTDFAQGWGPISYANGSGPDQRPYCWHYPPRPCGIVPAKSVCGPVYCFTPSPVVVGTTDRSGAPTYSWGENETDVFILNNTRPPLGNWFGCTWMNSSGFTKVCGAPPCVIGGVGNNTLRCPTDCFRKHPEATYSRCGSGPWITPRCLVNYPYRLWHYPCTINYTIFKVRMYVGGVEHRLEAACNWTRGERCDLEDRDRSELSPLLLSTTQWQVLPCSFTTLPALSTGLIHLHQNIVDVQYLYGVGSSIASWAIKWDYVVLLFLLLADARVCSCLWMMLLISQAEA"}}, "key": {"[1]": {"target": "T1, recombinant CD81-LEL (GST tag) (Homo sapiens, UniProt P60033)", "T1 construct": "the large extracellular loop of CD81 (CD81-LEL); gift of Dr. Shoshana Levy, Stanford University", "T1 sequence (P60033 113-201 limits assumed)": "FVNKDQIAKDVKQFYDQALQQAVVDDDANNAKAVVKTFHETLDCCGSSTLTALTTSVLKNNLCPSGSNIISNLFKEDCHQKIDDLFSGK", "test": "Surface plasmon resonance (Biacore T200) binding of ligands to immobilized recombinant CD81-LEL", "details": "Table A; ligand 600 μM in PBS-0.05% Tween-80; CD81-LEL-GST on CM5 chip", "protocol": "SPR analysis was performed using a Biacore T200 workstation (GE Healthcare, NJ, USA). A recombinant form of the CD81-LEL protein with a GST tag (generously provided by Dr. Shoshana Levy, Stanford University) was used to confirm, using an established experimental technique, the binding of several ligands to the protein. Briefly, 10 μM CD81-LEL-GST diluted into 10 mM Na-Acetate buffer pH 4.5 was immobilized for 15 min at a flow speed of 5 μl/min onto a CM5 sensor chip using amine-coupling (EDC-NHS). Approximately 20,000 RU of protein were immobilized on the chip. The ligands were prepared as 600 μM solutions in PBS-0.05% Tween-80 (the running buffer) and they were introduced to the protein using a pre-programmed 3 minute association and 1 minute dissociation interval.\nThe binding affinity of the most tightly bound ligand in the group selected for ligand conjugate design (Ligand 1) was estimated using data collected from a series of SPR binding experiments conducted at different ligand concentrations. To obtain the kinetic and affinity data needed to estimate the Kd, the original ligand was diluted serially with running buffer to produce seven different ligand concentrations: 1024 μM, […], 256 μM, 128 μM, 64 μM, 32 μM and 0 μM. Data were fitted using a monovalent binding model.\nA total of 36 ligands were tested experimentally using surface Plasmon resonance (on a Biacore T200 instrument) to identify which of the molecules calculated to bind to Sites 1 and 2 on CD81 actually bind to a recombinant form of the protein (CD81-LEL). Twenty-six of the molecules provided a positive change in response units (RU) upon introduction to a chip containing the immobilized protein (Table A), indicating the ligands bound to the protein. The measured responses for the ligands that bound varied from 2.3 to 78.4 RU. Those ligands providing the largest responses tended to be molecules that were calculated to bind more deeply inside cavities in Site 1 (ligands 30930, 98026, 7436, 5069), Site 2 (ligands 127947, 38743) or Site 4 (ligands 78623, 16631).\nExperimental analysis of ligand binding to recombinant CD81 LEL. Forty ligands calculated by AutoDock to bind to sites 1 and 2 on CD81-LEL were tested experimentally using surface Plasmon resonance as described in the Materials and Methods section. Ligand code numbers are those assigned by the National Cancer Institute. […] Because the binding experiments were performed by passing the same concentration of each ligand sequentially across the same protein coated chip using both techniques, the magnitude of the responses can be used to provide an approximate ranking of binding strength."}, "[2]": {"target": "T2, native CD81 on Raji cells (Homo sapiens, UniProt P60033)", "T2 construct": "endogenous in cells; host or cells: Raji (human B cell line)", "T2 sequence (P60033 1-236)": "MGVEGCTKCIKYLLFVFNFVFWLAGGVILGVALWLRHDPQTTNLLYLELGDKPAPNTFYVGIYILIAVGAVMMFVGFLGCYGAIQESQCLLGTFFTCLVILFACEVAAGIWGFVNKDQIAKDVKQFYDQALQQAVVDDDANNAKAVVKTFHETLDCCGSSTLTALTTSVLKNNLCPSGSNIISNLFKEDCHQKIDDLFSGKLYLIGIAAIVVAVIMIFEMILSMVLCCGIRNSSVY", "test": "Competition assay: inhibition of FITC-labeled JS-81 anti-CD81 antibody binding to native CD81 on live Raji cells (flow cytometry)", "type": "cell-based", "description": "A subset of these ligands and some of those listed in the patent have been tested to identify those ligands that bind to the correct region of the CD81 protein and for binding to native CD81 on living cells (a Raji cell line). This assay tests three concentrations of the ligand to determine if the ligand is capable of inhibiting the binding of an antibody called JS-81. This antibody is known to bind to the region of the CD81 protein we have targeted. If the ligand decreases JS-81 binding as you increase the concentration of the ligand, it is 1) binding to native CD81 on the Raji cells and 2) it is binding to the correct region of the protein.\nFor antibody neutralization assay Raji cells were used, a human B cell line that expressed high amounts of CD81 on the surface (data not shown). Cells were grown in RPMI medium (10% FCS, 1% penicillin/streptomycin, 1% L-glutamine, 1% non-essential amino acids, 1% sodium pyruvate, pH 7.4, at 37° C. with 5% CO2). 2×10^5 cells were incubated with or without different concentrations (50 μM, 100 μM, 400 μM and 1 mM) of indicated inhibitor for 20 min at room temperature, subsequently 1 ul (16 ng/μl) of FITC-labeled anti CD81 antibody (BD Pharmingen, 551108) was added to the cells and incubated for 20 min (antibody titration was performed to obtain a working dilution range, data not shown). Cells were washed and analyzed by flow cytometry using fluorescence-activated cell sorting (FACS) (BD FACSCalibur, software: Cell Quest Pro). Mean Fluorescence Intensity MFI was calculated using Flowjo software (TreesStar, www.flowjo.com)."}, "recombinant CD81-LEL": {"target": "T3, recombinant CD81-LEL (Homo sapiens, UniProt P60033)", "T3 construct": "the large extracellular loop of CD81 (CD81-LEL); GST; His; Shoshana Levy Lab, Stanford (gift)", "T3 sequence (P60033 113-201 limits assumed)": "T1 sequence (P60033 113-201 limits assumed)", "test": "Dual polarization interferometry (DPI) binding of ligands to immobilized recombinant CD81-LEL", "details": "for DPI Radians: Table A; for DPI Radians / DPI Response (Radians), ligand added to CD81 protein: ligand 500 μM in PBS, 2.5% DMSO; for DPI Response (Radians), ligand added to CD81 protein: Table B and b111; for DPI Binding Response (Radians), molecule added alone to CD81: Table D, single molecule added to CD81", "protocol": "DPI analyses were performed using an AnaLight 4D workstation (Farfield Group, Manchester UK). The recombinant CD81-LEL was immobilized onto a Thiol AnaChip using Sulfo-GMBS as a cross-linker in PBS running buffer. Non-specific sites were blocked with digested casein. TRIS was used to cap the cross-linker, blocking any additional amines from covalently binding to the cross-linker on the chip surface. Ligands were prepared as a 20 mM stock solutions in DMSO. Each ligand was diluted to a final concentration of 500 μM in PBS just prior to injection (final DMSO concentration was 2.5%). PBS and DMSO mixed in the same ratio were used as a blank. Data collection and analysis were performed using the AnaLight Resolver.\nSix of the more interesting ligand candidates being considered for use in creating a ligand conjugate (three calculated to bind to Site 1 and three calculated to bind to Site 2) were further tested to confirm binding using a second experimental technique, dual polarization interferometry. The results, shown in FIG. 6, confirmed that all six ligands bound to the protein. The relative rank in strength of binding of the Site 1 and 2 ligands, as determined by DPI, were also similar to the ranking obtained by SPR or calculated by AutoDock for the majority of the ligands. […] One reason for this observed difference in the DPI response may relate to conformational changes in the protein that occur when the small molecules bind. The change in radians measured using DPI when a ligand binds to a protein is known to result from a combination of two effects: 1) the resulting increase in mass/volume when the ligand binds to the protein on the surface of the chip and 2) a conformational change in the protein induced by the binding of the ligand. Molecules binding in the deeper cavity would be expected to have more and stronger contacts with the protein than ligands sitting exposed to solvent in shallow cavities or surface binding sites. […]"}, "HCV E2 binding to CD81": {"target": "T4, HCV E2 binding to CD81 (Homo sapiens, UniProt P60033)", "T4 sequence (P60033 113-201 limits assumed)": "T1 sequence (P60033 113-201 limits assumed)", "test": "DPI assay of ligands blocking HCV E2 protein binding to CD81", "details": "Table D; E2 Protein alone gives 4.1402; reduced response = blocking", "protocol": "A subset of the ligands identified to bind to CD81 have been tested using Dual Polarization Interferometry (DPI) to determine if the ligands themselves are effective in blocking E2 binding to CD81. The experiments are conducted by first immobilizing one of the proteins (HCV E2 or CD81) on the chip used to perform the assay. The other protein is then introduced to the chip and the amount of binding is measured. This protein is then washed off and the protein and one of the ligands are then introduced to the chip. If the ligand blocks/interferes with the binding of the two proteins, the DPI response (measured in Radians) is reduced compared to when the protein is added alone. After the measurement is made, the protein and ligand are washed off and the next combination of the protein and a different ligand are added to the chip and the DPI response is measured. Similar experiments can be performed in which the protein is mixed with two or more ligands to see if they have a greater effect when combined.\nExperiments have been conducted with either CD81 or HCV E2 immobilized on the chip. Six ligands have been tested to date."}}}
{"molecule": "COc1cc(-c2ccc(Nc3ccccc3C(=O)O)c(OC)c2)ccc1Nc1ccccc1C(=O)O", "note": "[Ligand 73735]", "values": [{"measurement": "SPR Response Units", "setting": "[1]", "result": 1957.8, "unit": "RU"}, {"measurement": "Inhibition of JS-81 Binding (%)", "setting": "[2]; 50 μM ligand", "result": 0, "unit": "%"}, {"measurement": "Inhibition of JS-81 Binding (%)", "setting": "[2]; 100 μM ligand", "result": 0, "unit": "%"}, {"measurement": "Inhibition of JS-81 Binding (%)", "setting": "[2]; 400 μM ligand", "result": 24, "unit": "%"}]}
{"molecule": "NC(=O)CCC(C(=O)O)N1C(=O)c2ccc(O)cc2C1=O", "note": "(stereo not shown) [Ligand 78623]", "values": [{"measurement": "SPR Response Units", "setting": "[1]", "result": 54.5, "unit": "RU"}]}
{"molecule": "O=C(O)/C=C\\C(=O)Nc1nccs1", "note": "[Ligand 80807]", "values": [{"measurement": "DPI Radians", "setting": "recombinant CD81-LEL", "result": 0.1909, "unit": "Radians"}]}
{"molecule": "Cn1c(=O)c2[nH]c(CNc3ccc(C(=O)O)cc3)nc2n(C)c1=O", "note": "[Ligand 81750]", "values": [{"measurement": "DPI Radians", "setting": "recombinant CD81-LEL", "result": 0.4360, "unit": "Radians"}]}
{"molecule": "O=C(Cn1ccc(=O)[nH]c1=O)Nc1ccc(C(=O)O)c(O)c1", "note": "[Ligand 93033]", "values": [{"measurement": "SPR Response Units", "setting": "[1]", "result": 16.9, "unit": "RU"}, {"measurement": "Inhibition of JS-81 Binding (%)", "setting": "[2]; 50 μM ligand", "result": 0, "unit": "%"}, {"measurement": "Inhibition of JS-81 Binding (%)", "setting": "[2]; 100 μM ligand", "result": 0, "unit": "%"}, {"measurement": "Inhibition of JS-81 Binding (%)", "setting": "[2]; 400 μM ligand", "result": 16, "unit": "%"}, {"measurement": "DPI Binding Response (Radians), E2 Protein added to CD81 together with ligand(s)", "setting": "HCV E2 binding to CD81", "result": 0.2546, "unit": "Radians"}, {"measurement": "DPI Response (Radians), ligand added to CD81 protein", "setting": "recombinant CD81-LEL", "result": 0.7245, "unit": "Radians"}, {"measurement": "DPI Binding Response (Radians), molecule added alone to CD81", "setting": "recombinant CD81-LEL", "result": 0.7245, "unit": "Radians"}]}
{"molecule": "CC(C)=CCC1=C(OCC(=O)O)C(=O)c2ccccc2C1=O", "note": "[Ligand 98026]", "values": [{"measurement": "SPR Response Units", "setting": "[1]", "result": 50, "unit": "RU"}, {"measurement": "Inhibition of JS-81 Binding (%)", "setting": "[2]; 50 μM ligand", "result": 0, "unit": "%"}, {"measurement": "Inhibition of JS-81 Binding (%)", "setting": "[2]; 100 μM ligand", "result": 0, "unit": "%"}, {"measurement": "Inhibition of JS-81 Binding (%)", "setting": "[2]; 400 μM ligand", "result": 21, "unit": "%"}, {"measurement": "DPI Response (Radians), ligand added to CD81 protein", "setting": "recombinant CD81-LEL", "result": 1.1918, "unit": "Radians"}]}
{"molecule": "CCCNC1=C(C)C(=O)C2=C(C1=O)C(COC(N)=O)C1(OC)C3NC3CN21", "note": "(stereo not shown) [Ligand 123115]", "values": [{"measurement": "SPR Response Units", "setting": "[1]", "result": 34.5, "unit": "RU"}]}
{"molecule": "NC(=S)Nc1cccc(Cl)c1", "note": "[Ligand 164965]", "values": [{"measurement": "DPI Radians", "setting": "recombinant CD81-LEL", "result": 0.7494, "unit": "Radians"}, {"measurement": "DPI Response (Radians), ligand added to CD81 protein", "setting": "recombinant CD81-LEL", "result": 0.7494, "unit": "Radians"}]}
{"molecule": "COc1cc(CCC(=O)O)on1", "note": "[Ligand 303800]", "values": [{"measurement": "SPR Response Units", "setting": "[1]", "result": 7.8, "unit": "RU"}]}
{"molecule": "COc1ccccc1/C=C(\\C#N)C(=O)O", "note": "[Ligand 638134]", "values": [{"measurement": "SPR Response Units", "setting": "[1]", "result": 25, "unit": "RU"}]}
{"molecule": "B1", "values": [{"measurement": "DPI Binding Response (Radians), molecule added alone to CD81", "setting": "recombinant CD81-LEL", "result": 4.1402, "unit": "Radians"}]}
